From US20210261583A1, “Synthetic Cytotoxic Molecules, Drugs, Methods of Their Synthesis and Methods of Treatment” (The Regents of the University of California, priority 2018, published 2021)
pIC50: −log10 of the molar value. Counter-ions that a name gives are not always drawn. Like-named read-outs stand apart in the source and are kept apart here.

Legend:
cancer cells = assay: Cytotoxicity (IC50); format: cell-based
CD98 = assay: Nutrient transporter (CD98) down-regulation; format: cell-based; conditions: for activity in downregulation tests: compared to hydroxy pyrrolidine ketone progenitors 20, 21, 23 and 24
vacuolation = assay: Vacuolation score; format: cell-based; conditions: for activity in vacuolation tests: compared to hydroxy pyrrolidine ketone progenitors 20, 21, 23 and 24
[1] = Racemization/epimerization, deuterium incorporation and cyclization in protic solvents; format: physicochemical; conditions: for time to complete incorporation of deuterium at C-2: D2O, room temperature; for racemization / epimerization after N-Boc deprotection: dissolved in protic solvents such as water and MeOH, gives 1:1 mixture of enantiomers or epimers
Procedure: In the presence of D2O at room temperature, deuterium was incorporated at C-2 confirming a fast enolization followed by β-elimination and ring closure. […] The incorporation of deuterium is complete in 30 min at pH=10, and in 3 hours at pH=7.
It was therefore decided to further investigate this new structural analog and we prepared the bicyclic enantiopure pyrrolizidine 17 bearing the aryloctyl appendage on C-3, in analogy with our lead compound 3 as well as the monocyclic variant 18, to check the effect of the substituent position and the nature of the azacycles (FIG. 7).

[2] = at concentration near IC50 / where it kills 50% of cells

Compound	pIC50 (cancer cells)	inhibition at 2.5 µM (CD98; 2.5 μM)	inhibition at 10 µM (CD98; 10 μM)	inhibition at 40 µM (CD98; 40 μM)	Vacuolation score (vacuolation; 2.5 μM)	Vacuolation score (vacuolation; 10 μM)	other results
CCCCCCCCc1ccc(C(C[C@@H]2CCCN2)OC)cc1.Cl (single isomer, unassigned) [Compound 10, hydrochloride]	5.52	15%	58%	–	–	–	–
CCCCCCCCc1ccc([C@@H]2CCC3C[C@H](CO)CN32)cc1.Cl (stereo partly drawn) [Compound 14, ((2S,5S)-5-(4-Octylphenyl)hexahydro-1H-pyrrolizin-2-yl)methanol hydrochloride]	4.91	0%	32%	68%	0	0	pIC50 (cancer cells; hydrochloride): 4.91
CCCCCCCCc1ccc(CC(O)[C@H]2C[C@H](O)CN2)cc1.Cl (stereo partly drawn) [Compound 26, (2R,4S)-4-Hydroxy-2-(1-hydroxy-2-(4-octylphenyl)ethyl)pyrrolidin-1-ium chloride]	5.74	9%	62%	–	0	–	nutrient transporter down-regulation (CD98; [2]): does not down-regulate nutrient transporter proteins; vacuolation (vacuolation; [2]): does not down-regulate nutrient transporter proteins or vacuolate
CCCCCCCCc1ccc(CC(=O)[C@@H]2C[C@@H](OP(=O)(O)O)CN2)cc1.Cl [Compound 31, (2S,4R)-2-(2-(4-Octylphenyl)acetyl)-4-(phosphonooxy)pyrrolidin-1-ium chloride]	4.60	–	3%	0%	–	0	activity in downregulation tests (CD98): totally inactive; Vacuolation score (vacuolation; 40 μM): 0; activity in vacuolation tests (vacuolation): totally inactive
CCCCCCCCc1ccc(CC(=O)[C@@H]2C[C@@H](O)CN2)cc1.Cl [Compound 23, (2S,4R)-4-Hydroxy-2-(2-(4-octylphenyl)acetyl)pyrrolidin-1-ium chloride]	4.73	13%	23%	59%	0	0	–
CCCCCCCCc1ccc(CC(=O)[C@H]2C[C@H](OP(=O)(O)O)CN2)cc1.Cl [Compound 32, (2R,4S)-2-(2-(4-Octylphenyl)acetyl)-4-(phosphonooxy)pyrrolidin-1-ium chloride]	4.60	–	5%	8%	–	0	activity in downregulation tests (CD98): totally inactive; Vacuolation score (vacuolation; 40 μM): 0; activity in vacuolation tests (vacuolation): totally inactive
CCCCCCCCc1ccc(CC[C@@H]2CCCN2)cc1 [Compound 9, (R)-2-(4-Octylphenethyl)pyrrolidine hydrochloride]	5.55	41%	63%	–	–	–	–
CCCCCCCCc1ccc(C(=O)[C@@H]2C[C@@H](O)CN2)cc1.Cl [Compound 20, (2S,4R)-4-Hydroxy-2-(4-octylbenzoyl)pyrrolidin-1-ium chloride]	4.55	2%	9%	48%	0	–	–
CCCCCCCCc1ccc(C(=O)C[C@H]2C[C@H](CO)CN2)cc1.Cl (mixture of isomers) [Compound 12, 2-((2R,4S)-4-(Hydroxymethyl)pyrrolidin-2-yl)-1-(4-octylphenyl)ethan-1-one hydrochloride]	5.70	44%	50%	–	–	–	time to complete incorporation of deuterium at C-2 ([1]; pH=7): 3 h; time to complete incorporation of deuterium at C-2 ([1]; pH=10): 0.5 h; racemization / epimerization after N-Boc deprotection [1]: prone to racemization and epimerization; stability to epimerization ([1]; pH≤3 in H2O): stable only in very acidic conditions
CCCCCCCCc1ccc(C(=O)C[C@@H]2CCCN2)cc1.Cl [Compound 8, (S)-1-(4-Octylphenyl)-2-(pyrrolidin-2-yl)ethan-1-one hydrochloride]	5.60	78%	57%	–	–	–	racemization / epimerization after N-Boc deprotection [1]: prone to racemization and epimerization
CCCCCCCCc1ccc([C@H]2CCN[C@@H]2CO)cc1.Cl [Compound 3, reference compound]	5.68	–	–	–	–	–	% CD98 down-regulation (CD98; 2.5 μM): 42%; % CD98 down-regulation (CD98; 10 μM): 66%
CCCCCCCCc1ccc(C(=O)[C@@H]2C[C@@H](OP(=O)(O)O)CN2)cc1.Cl [Compound 29, (2S,4R)-2-(4-Octylbenzoyl)-4-(phosphonooxy)pyrrolidin-1-ium chloride]	4.89	–	–	–	0	0	% CD98 down-regulation (CD98; 10 μM): 3%; % CD98 down-regulation (CD98; 40 μM): −8%; activity in downregulation tests (CD98): totally inactive; Vacuolation score (vacuolation; 40 μM): 0; activity in vacuolation tests (vacuolation): totally inactive
CCCCCCCCc1ccc(C(C[C@@H]2CCCN2)OC)cc1.Cl (single isomer, unassigned) [Compound 10, (2S)-2-(2-Methoxy-2-(4-octylphenyl)ethyl)pyrrolidine hydrochloride]	–	–	–	–	0	–	–
CCCCCCCCc1ccc(C(=O)CC[C@H]2C[C@H](CO)CN2)cc1.Cl [Compound 13]	–	–	–	–	0	–	% CD98 down-regulation (CD98; 2.5 μM): 8%; % CD98 down-regulation (CD98; 10 μM): 46%
CCCCCCCCc1ccc(C(=O)[C@@H]2C[C@@H](OP(=O)(O)O)CN2)cc1.Cl [Compound 30, (2S,4R)-2-(4-Octylbenzoyl)-4-(phosphonooxy)pyrrolidin-1-ium chloride]	4.89	–	–	–	0	0	% CD98 down-regulation (CD98; 10 μM): −9%; % CD98 down-regulation (CD98; 40 μM): −0%; activity in downregulation tests (CD98): totally inactive; Vacuolation score (vacuolation; 40 μM): 0; activity in vacuolation tests (vacuolation): totally inactive
CCCCCCCCc1ccc(CC(O)[C@@H]2C[C@@H](O)CN2)cc1 (stereo partly drawn) [Compound 25, (2S,4R)-4-Hydroxy-2-(1-hydroxy-2-(4-octylphenyl)ethyl)pyrrolidin-1-ium chloride]	5.52	19%	62%	–	–	–	–
CCCCCCCCc1ccc(CC(=O)[C@H]2C[C@H](O)CN2)cc1.Cl [Compound 24, (2R,4S)-4-Hydroxy-2-(2-(4-octylphenyl)acetyl)pyrrolidin-1-ium chloride]	4.77	11%	16%	54%	0	0	–
CCCCCCCCc1ccc(C(=O)C[C@@H]2C[C@@H](O)CN2)cc1.Cl [Compound 11, (2S,4R)-4-Hydroxy-2-(2-(4-octylphenyl)-2-oxoethyl)pyrrolidin-1-ium chloride]	5.68	22%	46%	–	–	–	racemization / epimerization after N-Boc deprotection [1]: prone to racemization and epimerization
CCCCCCCCc1ccc(C(=O)[C@@H]2CCCN2)cc1.Cl [Compound 19, (S)-2-(4-Octylbenzoyl)pyrrolidin-1-ium chloride]	–	-21%	-4%	33%	0	0	–
CCCCCCCCc1ccc(C(=O)CC[C@H]2C[C@H](CO)CN2)cc1.Cl [Compound 13, 3-(2S,4S)-4-(Hydroxymethyl)pyrrolidin-2-yl)-1-(4-octylphenyl)propan-1-one hydrochloride]	5.40	–	–	–	–	–	–
CCCCCCCCc1ccc(C[C@@H]2C[C@@H](O)CN2)cc1 [Compound 16, (3R,5R)-5-(4-Octylbenzyl)pyrrolidin-3-ol]	5.66	40%	63%	–	–	–	–
CCCCCCCCc1ccc(C(=O)[C@H]2C[C@H](CO)CN2)cc1.Cl [Compound 22, ((2R,4S)-4-(Hydroxymethyl)pyrrolidin-2-yl)(4-octylphenyl)methanone hydrochloride]	4.71	0%	19%	61%	0	0	–
CCCCCCCCc1ccc(C(=O)CC[C@@H]2C[C@@H](O)CN2)cc1 [Compound 15, (2R,4R)-4-Hydroxy-2-(3-(4-octylphenyl)-3-oxopropyl)pyrrolidin-1-ium chloride]	5.68	15%	52%	–	–	–	–
CCCCCCCCc1ccc(C(=O)[C@H]2C[C@H](O)CN2)cc1.Cl [Compound 21, (2R,4S)-4-Hydroxy-2-(4-octylbenzoyl)pyrrolidin-1-ium chloride]	4.82	12%	51%	41%	0	–	vacuolation (in words) (vacuolation; 10 μM): reached maximum vacuolation
